The record followed here is ChEMBL document CHEMBL5550184, “Structure-activity relationships of middle-size cyclic peptides, KRAS inhibitors derived from an mRNA display” (Bioorg Med Chem, 2024).

The nature of series [1]: Apparent permeability in human Caco-2 cells incubated for 180 mins by LC-MS/MS method. Type of series: ADME, cell-based. In general terms: Caco-2 cells form a polarised layer with tight junctions and transporters.
Series [2] in a line: Inhibition of biotin-tagged KRAS G12D mutant (unknown origin) to recombinant His-tagged SOS1 (unknown origin) protein-protein interaction incubated for 120 mins by AlphaLISA method. More on the design: species or system Homo sapiens. (In Alpha technology, singlet oxygen from a donor bead excites a nearby acceptor bead.)
For series [3], the system named is GTPase KRas (Homo sapiens), P01116 [G12D]. As to the kind of experiment: Binding affinity to biotinylated KRAS G12D mutant (unknown origin) assessed as Kon incubated for 120 mins by SPR analysis.
Sequence of GTPase KRas (Homo sapiens), P01116 [G12D] (P01116 whole entry G12D, looked up): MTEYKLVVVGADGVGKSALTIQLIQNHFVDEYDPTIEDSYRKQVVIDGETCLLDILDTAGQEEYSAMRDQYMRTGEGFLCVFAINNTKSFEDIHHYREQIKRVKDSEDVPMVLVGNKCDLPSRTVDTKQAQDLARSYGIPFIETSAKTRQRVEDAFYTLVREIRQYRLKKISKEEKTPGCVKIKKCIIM
The test system of series [4] is ASPC1. As to the kind of experiment: Cytotoxicity against human AsPC1 cells assessed as reduction in cell viability incubated for 7 days by CellTiterGlo Luminescent Cell Viability Assay. Type of series: functional, cell-based. Particulars: ASPC1, 168 h. (In ATP-based viability assays light output follows the ATP content of the culture.)
Series [5] addresses GTPase KRas (Homo sapiens, UniProt P01116, G12D). The series is described as follows: Binding affinity to biotinylated KRAS G12D mutant (unknown origin) incubated for 120 mins by SPR analysis.
Series [6] has as its system GTPase KRas (Homo sapiens), P01116 [G12D]. The series is described as follows: Binding affinity to biotinylated KRAS G12D mutant (unknown origin) assessed as Koff incubated for 120 mins by SPR analysis.

Positions of bridges follow the written chain, without caps; N, C: chain ends. Non-standard residues stand in square brackets, D forms with d. Residues, ends and D or L forms follow the SMILES beside them. *: point of attachment. hPhe(3-Cl-4-CF3) = N[C@@H](CCc1ccc(C(F)(F)F)c(Cl)c1)C(=O)O; NMeCha = CN[C@@H](CC1CCCCC1)C(=O)O; NEtLeu = CCN[C@@H](CC(C)C)C(=O)O; NMeChg = CN[C@H](C(=O)O)C1CCCCC1; NMeT = CN[C@H](C(=O)O)[C@@H](C)O; NMeD = CN[C@@H](CC(=O)O)C(=O)O; NMeL = CN[C@@H](CC(C)C)C(=O)O; NMehSer = CN[C@@H](CCO)C(=O)O; NMeAc5c = CNC1(C(=O)O)CCCC1; NMeNva = CCC[C@H](NC)C(=O)O; NMeA = CN[C@@H](C)C(=O)O; Piperidide = C1CCN(*)CC1; Ac5c = NC1(C(=O)O)CCCC1; Sar = CNCC(=O)O

Sequence of GTPase KRas (P01116 whole entry G12D): as the sequence (P01116 whole entry G12D, looked up) above

By Papp is commonly meant a coefficient for how fast a substance crosses the barrier. What is called IC50 is the point on the concentration scale where inhibition reaches its midpoint. Broadly, the Kd is the concentration at which binding is half-saturated. With `CC[C@H](C)[C@@H]1NC(=O)[C@H]([C@@H](C)O)N(C)C(=O)C[C@@H](C(=O)N2CCCCC2)N(C)C(=O)[C@H](C2CCCCC2)N(C)C(=O)C2(CCCC2)NC(=O)[C@@H]2CCCN2C(=O)[C@H](CCc2ccc(C(F)(F)F)c(Cl)c2)NC(=O)CN(C)C(=O)[C@H](CC2CCCCC2)N(C)C(=O)CN(C)C(=O)CN(C)C1=O` ([NMeT]I[Sar][Sar][NMeCha][Sar][hPhe(3-Cl-4-CF3)]P[Ac5c][NMeChg][NMeD]-Piperidide; lactam N-11), the Papp at 3 h in series [1] was 0.15 ×10⁻⁶ cm/s. Besides, the figures for the IC50 in series [2] and in series [4] were < 2 nM and 220 nM, respectively. The K was 1.2 10^6/Ms in series [3] and 2.7 10^-4/s in series [6]. This molecule also yielded a Kd in series [5] of 0.23 nM.

On to `CC[C@H](C)[C@@H]1NC(=O)C2(CCCC2)N(C)C(=O)C[C@@H](C(=O)N2CCCCC2)N(C)C(=O)[C@H](C2CCCCC2)N(C)C(=O)C2(CCCC2)NC(=O)[C@@H]2CCCN2C(=O)[C@H](CCc2ccc(C(F)(F)F)c(Cl)c2)NC(=O)CN(C)C(=O)[C@H](CC2CCCCC2)N(C)C(=O)CN(C)C(=O)CN(C)C1=O` ([NMeAc5c]I[Sar][Sar][NMeCha][Sar][hPhe(3-Cl-4-CF3)]P[Ac5c][NMeChg][NMeD]-Piperidide; lactam N-11), for which, in series [1], the Papp at 3 h was 0.62 ×10⁻⁶ cm/s. For the same molecule, the values for the half-maximal inhibitory concentration (IC50) in series [2] and in series [4] were < 2 nM and 65 nM, respectively. Further, the K is 3.8 10^5/Ms in series [3] and 2.4 10^-4/s in series [6]. Also, the Kd in series [5] amounted to 0.64 nM.

With `CC[C@H](C)[C@@H]1NC(=O)[C@H](CCOC)N(C)C(=O)C[C@@H](C(=O)N2CCCCC2)N(C)C(=O)[C@H](C2CCCCC2)N(C)C(=O)C2(CCCC2)NC(=O)[C@@H]2CCCN2C(=O)[C@H](CCc2ccc(C(F)(F)F)c(Cl)c2)NC(=O)CN(C)C(=O)[C@H](CC2CCCCC2)N(C)C(=O)CN(C)C(=O)CN(C)C1=O` ([NMehSer](Me)I[Sar][Sar][NMeCha][Sar][hPhe(3-Cl-4-CF3)]P[Ac5c][NMeChg][NMeD]-Piperidide; lactam N-11), the apparent permeability coefficient (Papp) at 3 h in series [1] came to 0.37 ×10⁻⁶ cm/s. The 50% inhibitory concentration (IC50) in series [2] is < 2 nM; in series [4], 74 nM. For the same molecule, the K in series [3] is 1.1 10^6/Ms; in series [6], 2.8 10^-4/s. This molecule had a dissociation constant (Kd) in series [5] of 0.26 nM.

Consider `CC[C@H](C)[C@@H]1NC(=O)[C@H](CC2CCCCC2)N(C)C(=O)C[C@@H](C(=O)N2CCCCC2)N(C)C(=O)[C@H](C2CCCCC2)N(C)C(=O)C2(CCCC2)NC(=O)[C@@H]2CCCN2C(=O)[C@H](CCc2ccc(C(F)(F)F)c(Cl)c2)NC(=O)CN(C)C(=O)[C@H](CC2CCCCC2)N(C)C(=O)CN(C)C(=O)CN(C)C1=O` ([NMeCha]I[Sar][Sar][NMeCha][Sar][hPhe(3-Cl-4-CF3)]P[Ac5c][NMeChg][NMeD]-Piperidide; lactam N-11), for which the apparent permeability (Papp) at 3 h in series [1] is 0.2 ×10⁻⁶ cm/s. Also, the IC50 in series [2] is < 2 nM; in series [4], 210 nM. Further, the K in series [3] is 1 10^5/Ms; in series [6], 2.6 10^-4/s. The molecule also displayed a Kd in series [5] of 2.5 nM.

As for `CC[C@H](C)[C@@H]1NC(=O)[C@H](CC(C)C)N(CC)C(=O)C[C@@H](C(=O)N2CCCCC2)N(C)C(=O)[C@H](C2CCCCC2)N(C)C(=O)C2(CCCC2)NC(=O)[C@@H]2CCCN2C(=O)[C@H](CCc2ccc(C(F)(F)F)c(Cl)c2)NC(=O)CN(C)C(=O)[C@H](CC2CCCCC2)N(C)C(=O)CN(C)C(=O)CN(C)C1=O` ([NEtLeu]I[Sar][Sar][NMeCha][Sar][hPhe(3-Cl-4-CF3)]P[Ac5c][NMeChg][NMeD]-Piperidide; lactam N-11), the apparent permeability coefficient (Papp) at 3 h in series [1] is 0.29 ×10⁻⁶ cm/s. For the same molecule, the IC50 is < 2 nM in series [2] and 73 nM in series [4]. Moreover, the values for the K in series [3] and in series [6] were 2.1 10^5/Ms and 2.3 10^-4/s, respectively. The Kd in series [5] worked out at 1.1 nM.

Take `CC[C@H](C)[C@@H]1NC(=O)[C@H](CC(C)C)N(C)C(=O)C[C@@H](C(=O)N2CCCCC2)N(C)C(=O)[C@H](C2CCCCC2)N(C)C(=O)C2(CCCC2)NC(=O)[C@@H]2CCCN2C(=O)[C@H](CCc2ccc(C(F)(F)F)c(Cl)c2)NC(=O)CN(C)C(=O)[C@H](CC2CCCCC2)N(C)C(=O)CN(C)C(=O)CN(C)C1=O` ([NMeL]I[Sar][Sar][NMeCha][Sar][hPhe(3-Cl-4-CF3)]P[Ac5c][NMeChg][NMeD]-Piperidide; lactam N-11): the Papp at 3 h in series [1] stood at 0.71 ×10⁻⁶ cm/s. The concentration for half-maximal inhibition (IC50) in series [2] is < 2 nM; in series [4], 40 nM. For the same molecule, the K in series [3] is 7.8 10^5/Ms; in series [6], 2.5 10^-4/s. The molecule also gave a Kd in series [5] of 0.32 nM.

Regarding `CC[C@H](C)[C@@H]1NC(=O)[C@H](C)N(C)C(=O)C[C@@H](C(=O)N2CCCCC2)N(C)C(=O)[C@H](C2CCCCC2)N(C)C(=O)C2(CCCC2)NC(=O)[C@@H]2CCCN2C(=O)[C@H](CCc2ccc(C(F)(F)F)c(Cl)c2)NC(=O)CN(C)C(=O)[C@H](CC2CCCCC2)N(C)C(=O)CN(C)C(=O)CN(C)C1=O` ([NMeA]I[Sar][Sar][NMeCha][Sar][hPhe(3-Cl-4-CF3)]P[Ac5c][NMeChg][NMeD]-Piperidide; lactam N-11), in series [1], the Papp at 3 h was 0.56 ×10⁻⁶ cm/s. Also, the IC50 in series [2] was < 2 nM; in series [4], 91 nM. The K is 1.2 10^6/Ms in series [3] and 1.7 10^-4/s in series [6]. In series [5], this molecule gave a Kd of 0.14 nM.

As to `CCC[C@H]1C(=O)N[C@@H]([C@@H](C)CC)C(=O)N(C)CC(=O)N(C)CC(=O)N(C)[C@@H](CC2CCCCC2)C(=O)N(C)CC(=O)N[C@@H](CCc2ccc(C(F)(F)F)c(Cl)c2)C(=O)N2CCC[C@H]2C(=O)NC2(CCCC2)C(=O)N(C)[C@@H](C2CCCCC2)C(=O)N(C)[C@H](C(=O)N2CCCCC2)CC(=O)N1C` ([NMeNva]I[Sar][Sar][NMeCha][Sar][hPhe(3-Cl-4-CF3)]P[Ac5c][NMeChg][NMeD]-Piperidide; lactam N-11), in series [1], the apparent permeability (Papp) at 3 h is 0.85 ×10⁻⁶ cm/s. For the same molecule, the half-maximal inhibitory concentration (IC50) in series [2] is < 2 nM; in series [4] it was 49 nM. Moreover, the K in series [3] is 3.1 10^5/Ms; in series [6], 2.3 10^-4/s. The Kd in series [5] turned out to be 0.75 nM.

Turning to `CC[C@H](C)[C@@H]1NC(=O)[C@H](CCO)N(C)C(=O)C[C@@H](C(=O)N2CCCCC2)N(C)C(=O)[C@H](C2CCCCC2)N(C)C(=O)C2(CCCC2)NC(=O)[C@@H]2CCCN2C(=O)[C@H](CCc2ccc(C(F)(F)F)c(Cl)c2)NC(=O)CN(C)C(=O)[C@H](CC2CCCCC2)N(C)C(=O)CN(C)C(=O)CN(C)C1=O` ([NMehSer]I[Sar][Sar][NMeCha][Sar][hPhe(3-Cl-4-CF3)]P[Ac5c][NMeChg][NMeD]-Piperidide; lactam N-11), the Papp at 3 h in series [1] amounted to 0.39 ×10⁻⁶ cm/s. Moreover, the IC50 was < 2 nM in series [2] and 63 nM in series [4]. The K in series [3] was 1.2 10^6/Ms; in series [6], 2.2 10^-4/s. In series [5], this molecule had a Kd of 0.17 nM.
